Measured values published in patent US8772286B2, “MK2 inhibitors” (Merck Sharp & Dohme B.V., priority 2009, dated 2014).
Values after ≈ are worked out from the molar mass of the structure shown. Like-named read-outs stand apart in the source and are kept apart here. Blank lines part the entries; values can stand above or below the compound they belong to.

Assays:
MK2 enzyme = biological target: T1, MK2 enzyme (Homo sapiens, UniProt P49137); test: MK2 enzyme activity, IMAP fluorescence polarization assay; type: biochemical
T1 construct: MK2 enzyme (active enzyme (peptide 46-end (Millipore))); purchased Millipore
T1 sequence (P49137 46-400 limits assumed): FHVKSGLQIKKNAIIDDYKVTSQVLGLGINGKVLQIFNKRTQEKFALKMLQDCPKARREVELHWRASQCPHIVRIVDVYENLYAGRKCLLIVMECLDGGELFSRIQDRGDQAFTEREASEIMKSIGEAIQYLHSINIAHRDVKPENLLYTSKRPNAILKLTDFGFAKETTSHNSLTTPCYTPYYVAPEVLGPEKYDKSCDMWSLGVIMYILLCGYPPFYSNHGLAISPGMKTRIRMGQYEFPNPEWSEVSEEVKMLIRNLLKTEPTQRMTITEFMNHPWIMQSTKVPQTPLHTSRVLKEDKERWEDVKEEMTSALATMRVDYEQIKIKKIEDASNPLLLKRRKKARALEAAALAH
Description: In another assay the MK2 kinase activity can be determined by using an IMAP assay (Immobilized Metal Assay for Phosphochemicals—based coupled assay). IMAP is a homogeneous fluorescence polarization (FP) assay based on affinity capture of phosphorylated peptide substrates. IMAP uses fluorescein-labeled peptide substrates that, upon phosphorylation by a protein kinase, bind to so called IMAP nanoparticles, which are derivatized with trivalent metal complexes. […] In such an assay, MK2 phosphorylates a fluorescein-labeled peptide substrate (see example 14).
MK2 enzyme activity is measured using the IMAP (immobilized metal ion affinity-based fluorescence polarization) assay as outlined below.
The enzyme is diluted to 100 U/mL the day before use in KR buffer (10 mM Tris-HCl, 10 mM MgCl2, 0.01% Tween-20, 0.05% NaN3, 2 mM DTT, pH 7.2) and stored overnight at −20° C.
The dilutions in DMSO are then diluted 50-fold in KR-buffer of which 5 μl is used in the assay, leading to a final compound concentration range in the assay from 10 μM to 0.316 nM.
After 60 min incubation at room temperature in the dark the FP signal is read. Fluorescence at 535 nm is measured using parallel and perpendicular filters to determine differences in rotation due to binding of the phosphorylated substrate peptide to the beads. Values are calculated as percentage of the difference in readout (ΔmPi) of the controls with and without ATP. EC50 values are determined by curve fitting of the experimental results using Activity Base.

[1] = Solubility determination of MK2 inhibitors (kinetic aqueous solubility, UPLC); type: physicochemical; conditions: aqueous buffer (system solution from pION inc.), 22 °C, pH 7.4, aqueous buffer, kinetic from dmso stock
Experimental: The solubility can be determined using the Automated Kinetic Aqueous Solubility (AKASol) method, which is an HPLC-UV based method. The method is derived from the classical saturated shake-flask solubility method which has been adapted to the 96-well microtitre plate format, allowing the use of DMSO stock solutions. The solubility is determined by measuring the amount of compound in a saturated aqueous solution, quantified by an external calibration curve of the compound dissolved in DMSO. The solubility (mg/L) is measured at pH 7.4, at room temperature and the final concentration of DMSO in the sample solution is 1%.
The samples were prepared from 10 mM DMSO stock solutions. For each compound under investigation, a volume (9 μL) of the DMSO stock solution is transferred from the DMSO stock solution into 891 μL of buffer solution (system solution from pION inc.) in a 96 deep well plate, which equates to approximately 1% DMSO, using the Packard Multiprobe II robot liquid handling system. The pH of the buffer is manually adjusted at pH 7.4 by adding NaOH. This procedure is done in duplicate for each sample. After shaking for 24 h on a vortex mixer (Heidolph, Titramax 101) at 450 rpm and at room temperature (21-23° C.), 300 uL of the incubated sample is transferred from the deep well plate to a filter plate (PVDF, 0.45 um) on a vacuum manifold. To the filtrate (150 uL) 1-propanol (50 uL) is added to suppress precipitation and this solution is then analysed by UPLC. The solubility is determined using the calibration line previously prepared.
Preparation of the Standards and Built up of a Calibration Line
The calibration line is built with different concentrations of the test compound (standards), prepared from the same 10 mM DMSO stock solution. A volume (7 uL) from the same DMSO stock solution was diluted with DMSO (273 uL) leading to a solution with concentration of 0.25 mM. From this solution, three different injection volumes (0.2, 1, 1.8 uL) were injected on UPLC. The respective peak areas are plotted against amount of compound to build up the calibration line. The calibration line is used to determine the amount of dissolved compound in each sample, selecting the injection that gave peak areas closest to the peak area range of the calibration standards.

[2] = MK2 IMAP assay, 1 μM ATP, 30 min pre-incubation, 2 h room temperature, read-out: pEC50 value (converted)
[3] = pH 7.4, room temperature, about 1% DMSO, 24 h shaking, read-out: solubility
[4] = Table 1, compound of Formula (I) with spiro ring, MK2 IMAP assay, read-out: pEC50, Formula (I) (converted)
[5] = Table 1, compound of Formula (I) with spiro ring, pH 7.4, read-out: Solubility pH 7.4 (mg/L), Formula (I)
[6] = Table 1, compound of Formula (I) with spiro ring, MK2 IMAP assay
[7] = Table 1, comparison compound of Formula (XV) without spiro ring, pH 7.4, read-out: Solubility pH 7.4 (mg/L), Formula (XV)
[8] = Table 1, comparison compound of Formula (XV) without spiro ring, MK2 IMAP assay, read-out: pEC50, Formula (XV) (converted)

Compound: Cc1ccc(-c2nccc(-c3cc4c([nH]3)C3(CCNC3)CNC4=O)n2)cc1 (centres unmarked) [6—3, 2′-(2-p-tolylpyrimidin-4-yl)-5′,6′-dihydrospiro[pyrrolidine-3,7′-pyrrolo[3,2-c]pyridin]-4′(1′H)-one]
EC50 (MK2 enzyme; [2]): 3.16 to 31.6 nM | solubility at 24 h [1, 3]: ≥ 50 mg/L

Compound: O=C1NCC2(CCNC2)c2[nH]c(-c3ccnc(-c4cccc(F)c4)n3)cc21 (centres unmarked) [6—4, 2′-(2-(3-fluorophenyl)pyrimidin-4-yl)-5′,6′-dihydrospiro[pyrrolidine-3,7′-pyrrolo[3,2-c]pyridin]-4′(1′H)-one]
EC50 (MK2 enzyme; [2]): 3.16 to 31.6 nM | solubility at 24 h [1, 3]: 20 to 50 mg/L (≈ 55 to 138 µM)

Compound: O=C1NCC2(CCNC2)c2[nH]c(-c3ccnc(-c4cc5ccccc5o4)c3)cc21 (centres unmarked) [6—5, 2′-(2-(benzofuran-2-yl)pyridin-4-yl)-5′,6′-dihydrospiro[pyrrolidine-3,7′-pyrrolo[3,2-c]pyridin]-4′(1′H)-one]
EC50 (MK2 enzyme; [2]): 3.16 to 31.6 nM | solubility at 24 h [1, 3]: ≥ 50 mg/L

Compound: O=C1NCC2(CNCCO2)c2[nH]c(-c3ccnc(-c4cc5ccccc5o4)n3)cc21 (centres unmarked) [7—1, 2′-(2-(benzofuran-2-yl)pyrimidin-4-yl)-5′,6′-dihydrospiro[morpholine-2,7′-pyrrolo[3,2-c]pyridin]-4′(1′H)-one]
EC50 (MK2 enzyme; [2]): 31.6 to 316 nM | solubility at 24 h [1, 3]: ≥ 50 mg/L

Compound: O=C1NCC2(CCNCC2)c2[nH]c(-c3ccnc(-c4cnc5ccccc5c4)c3)cc21 [8—2, 2′-(2-(quinolin-3-yl)pyridin-4-yl)-5′,6′-dihydrospiro[piperidine-4,7′-pyrrolo[3,2-c]pyridin]-4′(1′H)-one]
EC50 (MK2 enzyme; [2]): ≤ 3.16 nM | solubility at 24 h [1, 3]: 20 to 50 mg/L (≈ 48.8 to 122 µM)

Compound: O=C1NCC2(CCNCC2)c2[nH]c(-c3ccnc(-c4ccc5c(c4)OCO5)c3)cc21 [8—3, 2′-(2-(benzo[d][1,3]dioxol-5-yl)pyridin-4-yl)-5′,6′-dihydrospiro[piperidine-4,7′-pyrrolo[3,2-c]pyridin]-4′(1′H)-one]
EC50 (MK2 enzyme; [2]): ≤ 3.16 nM | solubility at 24 h [1, 3]: ≥ 50 mg/L

Compound: O=C1NCC2(CCNCC2)c2[nH]c(-c3ccnc(-c4nc5ccccc5s4)n3)cc21 [9—2, 2′-(2-(benzo[d]thiazol-2-yl)pyrimidin-4-yl)-5′,6′-dihydrospiro[piperidine-4,7′-pyrrolo[3,2-c]pyridin]-4′(1′H)-one]
EC50 (MK2 enzyme; [2]): 3.16 to 31.6 nM | solubility at 24 h [1, 3]: ≥ 50 mg/L

Compound: O=C1NCC2(CCNCC2)c2[nH]c(-c3ccnc(-c4nccs4)n3)cc21 [9—3, 2′-(2-(thiazol-2-yl)pyrimidin-4-yl)-5′,6′-dihydrospiro[piperidine-4,7′-pyrrolo[3,2-c]pyridin]-4′(1′H)-one]
EC50 (MK2 enzyme; [2]): 31.6 to 316 nM | solubility at 24 h [1, 3]: ≥ 50 mg/L

Compound: NCC(=O)N1CCC2(CC1)CNC(=O)c1cc(-c3ccnc(-c4cc5ccccc5o4)n3)[nH]c12 [10—1, 1-(2-aminoacetyl)-2′-(2-(benzofuran-2-yl)pyrimidin-4-yl)-5′,6′-dihydrospiro[piperidine-4,7′-pyrrolo[3,2-c]pyridin]-4′(1′H)-one]
EC50 (MK2 enzyme; [2]): 31.6 to 316 nM | solubility at 24 h [1, 3]: ≥ 50 mg/L

Compound: O=C1NCC2(CCNCC2)c2[nH]c(-c3ccnc(-c4cnc(NC5CCCC5)nc4)n3)cc21 [11—1, 2′-(2′-(cyclopentylamino)-2,5′-bipyrimidin-4-yl)-5′,6′-dihydrospiro[piperidine-4,7′-pyrrolo[3,2-c]pyridin]-4′(1′H)-one]
EC50 (MK2 enzyme; [2]): ≤ 3.16 nM | solubility at 24 h [1, 3]: ≥ 50 mg/L

Compound: Cc1ccc(C(=O)Nc2cc(-c3cc4c([nH]3)C3(CCNCC3)CNC4=O)ccn2)cc1C [12—2, 3,4-dimethyl-N-(4-(4′-oxo-1′,4′,5′,6′-tetrahydrospiro[piperidine-4,7′-pyrrolo[3,2-c]pyridine]-2′-yl)pyridin-2-yl)benzamide]
EC50 (MK2 enzyme; [2]): ≤ 3.16 nM | solubility at 24 h [1, 3]: ≥ 50 mg/L

Compound: O=C(Nc1nccc(-c2cc3c([nH]2)C2(CCCNC2)CNC3=O)n1)c1cccc(OC(F)(F)F)c1 (centres unmarked) [13—2, N-(4-(4′-oxo-1′,4′,5′,6′-tetrahydrospiro[piperidine-3,7′-pyrrolo[3,2-c]pyridine]-2′-yl)pyrimidin-2-yl)-3-(trifluoromethoxy)benzamide]
EC50 (MK2 enzyme; [2]): 31.6 to 316 nM | solubility at 24 h [1, 3]: 20 to 50 mg/L (≈ 41.1 to 103 µM)

Compound: O=C1NCC2(CCNCC2)c2[nH]c(-c3ccnc(-c4cnc5ccccc5c4)c3)cc21 [16_1 Formula (I)]
EC50 (MK2 enzyme; [4]): 1.26 nM | solubility at 24 h [1, 5]: 35 mg/L

Compound: O=C1NCC2(CCNCC2)c2[nH]c(-c3ccnc(-c4cnc5ccccc5c4)n3)cc21 [16_2 Formula (I)]
pEC50, Formula (I) (MK2 enzyme; [6]): 8.2 | solubility at 24 h [1, 5]: 23 mg/L

Compound: O=C1NCC2(CCNCC2)c2[nH]c(-c3ccnc(-c4cccc(F)c4)n3)cc21 [16_3 Formula (I)]
EC50 (MK2 enzyme; [4]): 7.94 nM | solubility at 24 h [1, 5]: 36 mg/L

Compound: O=C1NCCc2[nH]c(-c3ccnc(-c4cccc(F)c4)n3)cc21 [16_3 Formula (XV)]
EC50 (MK2 enzyme): 501 nM | solubility at 24 h [1, 7]: 32 mg/L

Results, then the compound that gave them:

EC50 (MK2 enzyme; [4]): 31.6 nM | solubility at 24 h [1, 5]: 36 mg/L
Compound: O=C1NCC2(CCNCC2)c2[nH]c(-c3ccnc(-c4ccccc4F)n3)cc21 [16_4 Formula (I)]

EC50 (MK2 enzyme; [8]): 1000 nM | solubility at 24 h [1, 7]: 44 mg/L
Compound: O=C1NCCc2[nH]c(-c3ccnc(-c4ccccc4F)n3)cc21 [16_4 Formula (XV)]

pEC50, Formula (I) (MK2 enzyme; [6]): 8.4 | solubility at 24 h [1, 5]: 37 mg/L
Compound: O=C1NCC2(CCNCC2)c2[nH]c(-c3ccnc(-c4ccc5c(c4)OCO5)n3)cc21 [16_5 Formula (I)]

EC50 (MK2 enzyme; [8]): 126 nM | solubility at 24 h [1, 7]: 5 mg/L
Compound: O=C1NCCc2[nH]c(-c3ccnc(-c4ccc5c(c4)OCO5)n3)cc21 [16_5 Formula (XV)]

EC50 (MK2 enzyme; [4]): 6.31 nM | solubility at 24 h [1, 5]: 84 mg/L
Compound: O=C1NCC2(CCNCC2)c2[nH]c(-c3ccnc(-c4cc5ccccc5o4)n3)cc21 [16_6 Formula (I)]

EC50 (MK2 enzyme; [8]): 50.1 nM | solubility at 24 h [1, 7]: 2 mg/L
Compound: O=C1NCCc2[nH]c(-c3ccnc(-c4cc5ccccc5o4)n3)cc21 [16_6 Formula (XV)]

EC50 (MK2 enzyme; [4]): 3.16 nM | solubility at 24 h [1, 5]: 66 mg/L
Compound: O=C1NCC2(CCNCC2)c2[nH]c(-c3ccnc(-c4cc5ccccc5o4)c3)cc21 [16_7 Formula (I)]

EC50 (MK2 enzyme): 126 nM | solubility at 24 h [1, 7]: 2 mg/L
Compound: O=C1NCCc2[nH]c(-c3ccnc(-c4cc5ccccc5o4)c3)cc21 [16_7 Formula (XV)]

EC50 (MK2 enzyme; [4]): 6.31 nM | solubility at 24 h [1, 5]: 35 mg/L
Compound: CC(=O)c1ccc(-c2nccc(-c3cc4c([nH]3)C3(CCNCC3)CNC4=O)n2)cc1 [16_8 Formula (I)]

EC50 (MK2 enzyme; [8]): 126 nM | solubility at 24 h [1, 7]: 3 mg/L
Compound: CC(=O)c1ccc(-c2nccc(-c3cc4c([nH]3)CCNC4=O)n2)cc1 [16_8 Formula (XV)]

pEC50, Formula (I) (MK2 enzyme; Table 2, compound of Formula (I) with amine-containing spiro ring, MK2 IMAP assay): 8.4 | solubility at 24 h ([1]; Table 2, compound of Formula (I) with amine-containing spiro ring, pH 7.4, read-out: Solubility pH 7.4 (mg/L), Formula (I)): 37 mg/L
Compound: O=C1NCC2(CCNCC2)c2[nH]c(-c3ccnc(-c4ccc5c(c4)OCO5)n3)cc21 [17_1 Formula (I)]

EC50 (MK2 enzyme; Table 2, comparison compound of Formula (XVI), spiro ring without amine, MK2 IMAP assay, read-out: pEC50, Formula (XVI) (converted)): 794 nM | solubility at 24 h ([1]; Table 2, comparison compound of Formula (XVI), spiro ring without amine, pH 7.4, read-out: Solubility pH 7.4 (mg/L), Formula (XVI)): 2 mg/L
Compound: O=C1NCC2(CCOCC2)c2[nH]c(-c3ccnc(-c4ccc5c(c4)OCO5)n3)cc21 [17_1 Formula (XVI)]
